Test system: HBV viral production from HepAD38 cells
Experiment: Activity of test compounds on viral production from HepAD38 cells (viral load by qPCR of HBV core sequence in supernatant)
Format: cell-based
Settings: Hepatitis B virus, 120 h, 5 days incubation, HBV DNA in supernatant by qPCR, top concentration 10 μM, read-out: Viral Load EC50 Activity range
Description: Assay Measuring Activity of Test Compounds on Viral Production from HepAD38 Cells
HepAD38 cells grown in a T-150 flask (Corning, cat #: 430825) with Growth Medium (DMEM/F12 (1:1) (Hyclone, cat #: SH30023.02), 1×Pen/Strep (Invitrogen, cat #: 15140-122), 10% FBS (Tissue Culture Biologics, cat #: 101), 250 μg/mL G418 (Alfa Aesar, cat #: J62671), 1 μg/mL Tetracycline (Teknova, cat #: T3320)) were detached with 0.25% trypsin-EDTA (Invitrogen, cat #: 25200-056). Tetracycline-free treatment medium (15 mL DMEM/F12 (1:1) 1× Pen/step, with 2% FBS, Tet-system approved (Clontech, cat #: 631106) were then added to mix, transferred into a 50 ml conical tube (Falcon, cat #: 21008-918) and spun at 1300 rpm for 5 min. Pelleted cells were then re-suspended/washed with 50 mL of 1×DPBS (Invitrogen, cat #: 14190-136) 2 times and 50 mL treatment medium twice. HepAD38 cells were then re-suspended with 10 mL of treatment medium, syringed and counted. Wells of 96-well clear bottom TC plate (Corning, cat #: 3904) were seeded at 50,000 cells/well in 180 μL of treatment medium, and 20 μL of either 10% DMSO (Sigma, cat #: D4540) as controls or a 10× solution of test compounds in 10% DMSO in treatment media was added for a final compound concentration starting at 10 μM, and plates were incubated in 5% CO2 incubator at 37° C. for 5 days.
Subsequently viral load production was assayed by quantitative PCR (qPCR) of the HBV core sequence. PCR reaction mixture containing forward primers HBV-f 5′-CTGTGCCTTGGGTGGCTTT-3′, which is SEQ ID NO 1, (IDT DNA), Reverse primers HBV-r 5′-[…]-3′, which is SEQ ID NO 2 (IDT DNA), Fluorescent TaqMan™ Probes HBV-probe 5′-FAM/AGCTCCAAA/ZEN/[…]/3IABkFQ-3′ (IDT DNA), which is SEQ ID NO 3, 10 μL/well of PerfeCTa® qPCR ToughMix® (Quanta Biosciences, Cat #: 95114-05K), and 6 µL/well of DEPC water (Alfa Aesar, cat #: J62087) was prepared. Four μL of supernatant was added to 16 μL of the reaction mixture in a qPCR plate (Applied Biosytems, Cat #: 4309849), sealed with a film (Applied Biosystems, Cat #: 4311971), centrifuged for a few seconds, and subsequently run on an Applied Biosystems VIIA7. The PCR mixture was incubated at 45° C. for 5 min, then 95° C. for 10 min, followed by 40 cycles of 10 seconds at 95° C. and 20 seconds at 60° C. Viral load was quantified against known HBV DNA standards by using ViiA™ 7 Software. Viral load in the supernatant from wells with treated cells were compared against viral load in supernatant from DMSO control wells (≥3 per plate). Cell viability assay was performed with CellTiter-Glo Luminescent Cell Viability Assay (Promega, cat #: G7573) with modification. Mixed appropriate amount of CellTiter-Glo (CTG) 1×DPBS in a 1:1 ratio, added 100 uL of the mixture to each well followed completely removal of all supernatant in each well without touching cell surface. Incubated the plate at room temperature for 10 min on an orbital shaker, and then read the plate with a plate reader (TECAN M1000 or Envision). EC50 or CC50 values were calculated through curve-fitting of the four-parameter nonlinear-logistic-regression model (GraphPad Prism or Dotmatics). CC50 values were all >10 μM.

Structure (SMILES)	EC50
CN1[C@H](C(=O)Nc2ccc(F)c(Cl)c2)C[C@H](c2ccc(-c3cncnc3)s2)NS1(=O)=O [HBV-CSU-272-ISO-I, Cis-N-(3-chloro-4-fluorophenyl)-2-methyl-5-(5-(pyrimidin-5-yl)thiophen-2-yl)-1,2,6-thiadiazinane-3-carboxamide 1,1-dioxide]	< 1000 nM
CN1C(C(=O)Nc2ccc(F)c(Cl)c2)CC(c2ccc(-c3ccccn3)s2)NS1(=O)=O (racemic) [HBV-CSU-160, Cis-N-(3-chloro-4-fluorophenyl)-2-methyl-5-(5-(pyridin-2-yl)thiophen-2-yl)-1,2,6-thiadiazinane-3-carboxamide 1,1-dioxide]	< 1000 nM
O=C(Nc1ccc(F)c(Cl)c1)[C@@H]1C[C@H](c2nccs2)NS(=O)(=O)N1CCO (relative stereo) [HBV-CSU-097-ISO-II, Cis-N-(3-Chloro-4-fluorophenyl)-2-(2-hydroxyethyl)-5-(thiazol-2-yl)-1,2,6-thiadiazinane-3-carboxamide 1,1-dioxide]	> 5000 nM
[2H]C([2H])([2H])N1[C@H](C(=O)Nc2ccc(F)c(Cl)c2)C[C@H](c2ncc(Br)s2)NS1(=O)=O [HBV-CSU-336-ISO-I, 5-(5-Bromothiazol-2-yl)-N-(3-chloro-4-fluorophenyl)-2-(methyl-d3)-1,2,6-thiadiazinane-3-carboxamide 1,1-dioxide]	< 1000 nM
O=C(Nc1ccc(F)c(Cl)c1)C1CC(c2cccs2)NS(=O)(=O)N1CCO (stereo not drawn) [HBV-CSU-041, Cis-N-(3-Chloro-4-fluorophenyl)-2-(2-hydroxyethyl)-5-(thiophen-2-yl)-1,2,6-thiadiazinane-3-carboxamide 1,1-dioxide]	> 5000 nM
CCn1cc(-c2ccc([C@H]3C[C@@H](C(=O)Nc4ccc(F)c(Cl)c4)N(C)S(=O)(=O)N3)s2)cn1 [HBV-CSU-291-ISO-I, Cis-N-(3-chloro-4-fluorophenyl)-5-(5-(1-ethyl-1H-pyrazol-4-yl)thiophen-2-yl)-2-methyl-1,2,6-thiadiazinane-3-carboxamide 1,1-dioxide]	< 1000 nM
COCCN1[C@@H](C(=O)Nc2ccc(F)c(Br)c2)C[C@@H](c2nccs2)NS1(=O)=O [HBV-CSU-059-ISO-I, Cis-N-(3-bromo-4-fluorophenyl)-2-(2-methoxyethyl)-5-(thiazol-2-yl)-1,2,6-thiadiazinane-3-carboxamide 1,1-dioxide]	> 5000 nM
CN1[C@@H](C(=O)Nc2ccc(F)c(Cl)c2)C[C@@H](c2ccc(-c3cn[nH]c3)s2)NS1(=O)=O [HBV-CSU-244-ISO-II]	< 1000 nM
O=C(Nc1ccc(F)c(Cl)c1)[C@H]1C[C@@H](c2nccs2)NS(=O)(=O)N1CCCN1CCOCC1 [HBV-CSU-103-ISO-I]	> 5000 nM
Cc1cc(C2CC(C(=O)Nc3ccc(F)c(Cl)c3)N(C)S(=O)(=O)N2)sc1Br (stereo not drawn) [HBV-CSU-335, Cis-5-(5-bromo-4-methylthiophen-2-yl)-N-(3-chloro-4-fluorophenyl)-2-methyl-1,2,6-thiadiazinane-3-carboxamide 1,1-dioxide]	< 1000 nM
CN1C(C(=O)Nc2cccc(Br)c2)CC(c2cccs2)NS1(=O)=O (stereo not drawn) [HBV-CSU-017, Cis-N-(3-Bromophenyl)-2-methyl-5-(thiophen-2-yl)-1,2,6-thiadiazinane-3-carboxamide 1,1-dioxide]	< 1000 nM
CN1[C@H](C(=O)Nc2ccc(F)c(Cl)c2)C[C@H](c2ccc(-c3ccc(C#N)c(F)c3)s2)NS1(=O)=O [HBV-CSU-156-ISO-I, Cis-N-(3-chloro-4-fluorophenyl)-5-(5-(4-cyano-3-fluorophenyl)thiophen-2-yl)-2-methyl-1,2,6-thiadiazinane-3-carboxamide 1,1-dioxide]	< 1000 nM
CN1C(C(=O)Nc2cccc(Cl)c2)CC(c2cccs2)NS1(=O)=O (racemic) [HBV-CSU-010, Cis-N-(3-chlorophenyl)-2-methyl-5-(thiophen-2-yl)-1,2,6-thiadiazinane-3-carboxamide 1,1-dioxide]	< 1000 nM
[2H]C([2H])([2H])N1[C@H](C(=O)Nc2ccc(F)c(Cl)c2)C[C@H](c2ccc(-c3cn(C([2H])([2H])[2H])cn3)s2)NS1(=O)=O (stereo in doubt) [HBV-CSU-374-ISO-I, Cis-N-(3-Chloro-4-fluorophenyl)-2-(methyl-d3)-5-(5-(1-(methyl-d3)-1H-imidazol-4-yl)thiophen-2-yl)-1,2,6-thiadiazinane-3-carboxamide 1,1-dioxide]	< 1000 nM
[2H]C([2H])([2H])N1[C@H](C(=O)Nc2ccc(F)c(Cl)c2)C[C@H](c2ccc(-c3cn(C)cn3)s2)NS1(=O)=O [HBV-CSU-373-ISO-I, Cis-N-(3-Chloro-4-fluorophenyl)-2-(methyl-d3)-5-(5-(1-methyl-1H-imidazol-4-yl)thiophen-2-yl)-1,2,6-thiadiazinane-3-carboxamide 1,1-dioxide]	< 1000 nM
CN1C(C(=O)Nc2ccc(F)c(Cl)c2)CC(c2nccs2)NS1(=O)=O (racemic) [HBV-CSU-027, Cis-N-(3-chloro-4-fluorophenyl)-2-methyl-5-(thiazol-2-yl)-1,2,6-thiadiazinane-3-carboxamide 1,1-dioxide]	< 1000 nM
CN1C(C(=O)Nc2ccc(F)c(Cl)c2)CC(c2cc(-c3cncn3C)cs2)NS1(=O)=O (racemic) [HBV-CSU-285, Cis-N-(3-Chloro-4-fluorophenyl)-2-methyl-5-(4-(1-methyl-1H-imidazol-5-yl)thiophen-2-yl)-1,2,6-thiadiazinane-3-carboxamide 1,1-dioxide]	< 1000 nM
CN1[C@@H](C(=O)Nc2ccc(F)c(Cl)c2)C[C@@H](c2ccc(-c3ccccc3)s2)NS1(=O)=O (relative stereo) [HBV-CSU-116-ISO-II, Cis-N-(3-chloro-4-fluorophenyl)-2-methyl-5-(5-phenylthiophen-2-yl)-1,2,6-thiadiazinane-3-carboxamide 1,1-dioxide]	1000 to 5000 nM
CN1C(C(=O)Nc2ccc(F)c(Cl)c2)CC(c2cccc(F)c2)NS1(=O)=O (racemic) [HBV-CSU-231, Cis-N-(3-Chloro-4-fluorophenyl)-5-(3-fluorophenyl)-2-methyl-1,2,6-thiadiazinane-3-carboxamide 1,1-dioxide]	< 1000 nM
[2H]C1[C@]([2H])(c2ccc(-c3cn(C([2H])([2H])[2H])cn3)s2)NS(=O)(=O)N(C([2H])([2H])[2H])[C@]1([2H])C(=O)Nc1ccc(F)c(Cl)c1 (stereo in doubt) [HBV-CSU-378-ISO-I, Cis-N-(3-chloro-4-fluorophenyl)-2-(methyl-d3)-5-(5-(1-(methyl-d3)-1H-imidazol-4-yl)thiophen-2-yl)-1,2,6-thiadiazinane-3,4,5-d3-3-carboxamide 1,1-dioxide]	< 1000 nM
CN1C(C(=O)Nc2ccc(F)c(Cl)c2)CC(c2cc(-c3cncnc3)cs2)NS1(=O)=O (racemic) [HBV-CSU-290, Cis-N-(3-chloro-4-fluorophenyl)-2-methyl-5-(4-(pyrimidin-5-yl)thiophen-2-yl)-1,2,6-thiadiazinane-3-carboxamide 1,1-dioxide]	< 1000 nM
Cc1cnc([C@@H]2C[C@H](C(=O)Nc3ccc(F)c(Cl)c3)N(C)S(=O)(=O)N2)s1	> 5000 nM
Cc1cc([C@H]2C[C@@H](C(=O)Nc3ccc(F)c(Cl)c3)N(C)S(=O)(=O)N2)sc1-c1cnn(C)c1 (relative stereo) [HBV-CSU-300-ISO-I, Cis-N-(3-Chloro-4-fluorophenyl)-5-(4-methyl-5-(1-methyl-1H-pyrazol-4-yl)thiophen-2-yl)-2-methyl-1,2,6-thiadiazinane-3-carboxamide 1,1-dioxide]	< 1000 nM
CN1[C@H](C(=O)Nc2ccc(F)c(Cl)c2)C[C@H](c2ncc(-c3ccc(F)cn3)s2)NS1(=O)=O [HBV-CSU-252-ISO-I, Cis-N-(3-Chloro-4-fluorophenyl)-5-(5-(5-fluoropyridin-2-yl)thiazol-2-yl)-2-methyl-1,2,6-thiadiazinane-3-carboxamide 1,1-dioxide]	< 1000 nM

Source: patent US11078170B2 (Assembly Biosciences, Inc., priority 2017, dated 2021)
